The nature of series [1]: Transport in Caco-2 cells. The following applies: human; for efflux ratio at 120 min: Caco-2, Caco-2, no inhibitor, Papp (BL−AP)/Papp (AP−BL); for Papp A→B at 120 min / Papp B→A at 120 min: Caco-2, no inhibitor, digoxin 10 μM, TB-2 5 μM, BBR 10 μM. Format: in vitro ADME, human. As for the experimental part: (§1) The culture medium was changed every other day for the first 7 days and then daily for the next 14 days. […] Prior to the transport experiments, the cell monolayers were washed three times with HBSS at 37°C. […] At the same time, the corresponding opposite side was filled with medium as the receiving chamber. After incubation for 30, 60, 90, and 120 min, 250-μl aliquots of the medium was taken from the receiving chamber at each time point, and prepared for analysis by HPLC–MS/MS. […] where (ΔQ/Δt) is the linear slope of the drug concentration in the receptor chamber over time, A represents the surface area of the membrane (1.12 cm^2), and C0 is the initial concentration of drug in the donor chamber. The efflux ratio (ERpermeability) for BL to AP and AP to BL transport was defined by the following equation: […] where Papp (BL–AP) and Papp (AP–BL) are the apparent permeability of drugs from the basolateral (BL) to apical (AP) and AP to BL sides of the monolayer, respectively.

In a further series the test system is Caco-2 cells. Put plainly: Transport in Caco-2 cells. Type of series: in vitro ADME, human. The settings on record: Caco-2, no inhibitor; Papp (BL−AP)/Papp (AP−BL). As for the experimental part: as §1
A general note: Caco-2 cells form a polarised layer with tight junctions and transporters.

Series [2] is described as follows: Body weight, food intake, organ coefficients and side effects in GK rats. Type of series: in vivo, rat. The procedure:
(§2) Four-week-old male GK rats were fed a high-fat diet, and age-matched non-diabetic Wistar rats were fed standard chow as the control group. Under these dietary conditions, blood glucose was estimated each week for 7 weeks in 12-h fasted rats using a portable glucometer (One Touch Sure Step Meter, Johnson & Johnson, United States) by drawing the blood from the tail vein. GK rats with fasting blood glucose levels (FBG) above 16.7 mM were considered as diabetic rats, and only uniformly diabetic rats were used in this study. […] All the drugs were suspended in 0.5% carboxymethylcellulose sodium (CMC-Na) solution for oral gavage (10 ml/kg) once per day (at 9:00) for 6 weeks. Simultaneously, the Wistar and vehicle groups received vehicle over the treatment period. Food consumption and body weight were measured every week throughout the experimental periods. Non-fasting blood glucose (NFBG) levels were determined by collecting blood samples from the tail vein (at 9:00), and FBG levels were determined after a 6-h fast (at 15:00) on days 0, 7, 14, 21, and 42. On day 28, an oral glucose tolerance test (OGTT) was performed after an overnight fast. […] On day 42, the rats were anesthetized with urethane (1.4 g/kg, dissolved in saline) after an overnight fast and were sacrificed to collect the liver, kidney, heart, and spleen. The organs were weighed after washing with saline and drying to calculate the organ coefficient, namely, the ratio between the weight of organs and the body in each rat.

The nature of series [3]: in vivo. The settings on record: male, Wistar, rat, po.
For series [4] the following is noted: male, Wistar, rat, in vivo.
Series [5] can be described thus: PK in systemic plasma of GK rats after repeated oral administration (day 35). Format: in vivo, rat. The following applies: rat, in vivo. As for the experimental part:
Analyses were performed on a Shimadzu LCMS-8030 triple quadrupole system (Shimadzu Corp., Japan) equipped with an electrospray ionization source. Data processing was performed using Shimadzu LC–MS LabSolutions (version 5.42 SP4, Shimadzu, Japan). Chromatographic separation was carried out on a Waters CORTECS C18+ column (100 mm × 2.1 mm, 2.7 μm, Ireland) with a security guard C18+ column (5 mm × 2.1 mm, 2.7 μm, Ireland). […] The gradient elution was 85% B from 0 to 2.5 min, 85% B–83% B from 2.5 to 3.0 min, 83% B from 3.0 to 6.0 min, 83% B–40% B from 6.0 to 6.5 min, 40% B from 6.5 to 7.0 min, 40% B–85% B from 7.0 to 7.2 min, and 85% B from 7.2 to 12 min. […] The optimized precursor-to-product ion pairs (collision energy) were in the positive mode as follows: m/z 579.20–255.15 (28 V) for TB-2 (at 4.1 min) and timosaponin A3 (at 6.1 min) and 271.50–154.70 (25 V) for tolbutamide (IS, at 5.8 min). […] If the concentrations of the compounds were over the linear range, the relevant samples were diluted with blank matrix by a factor of 10. […] Four-week-old male GK rats were fed a high-fat diet, and age-matched non-diabetic Wistar rats were fed standard chow as the control group. Under these dietary conditions, blood glucose was estimated each week for 7 weeks in 12-h fasted rats using a portable glucometer (One Touch Sure Step Meter, Johnson & Johnson, United States) by drawing the blood from the tail vein. GK rats with fasting blood glucose levels (FBG) above 16.7 mM were considered as diabetic rats, and only uniformly diabetic rats were used in this study. […] All the drugs were suspended in 0.5% carboxymethylcellulose sodium (CMC-Na) solution for oral gavage (10 ml/kg) once per day (at 9:00) for 6 weeks. Simultaneously, the Wistar and vehicle groups received vehicle over the treatment period. Food consumption and body weight were measured every week throughout the experimental periods. Non-fasting blood glucose (NFBG) levels were determined by collecting blood samples from the tail vein (at 9:00), and FBG levels were determined after a 6-h fast (at 15:00) on days 0, 7, 14, 21, and 42. On day 28, an oral glucose tolerance test (OGTT) was performed after an overnight fast. […] On day 42, the rats were anesthetized with urethane (1.4 g/kg, dissolved in saline) after an overnight fast and were sacrificed to collect the liver, kidney, heart, and spleen. The organs were weighed after washing with saline and drying to calculate the organ coefficient, namely, the ratio between the weight of organs and the body in each rat. The liver samples were diluted with 3 volumes (0.5 g/1.5 ml) of saline and homogenized. The liver homogenates and plasma samples (100 μl) were precipitated with three volumes of acetonitrile (containing 10 μg/ml tolbutamide). […] Then, 100 μl of the original mobile phase was added, and the samples were vortexed for 5 min and centrifuged at 13,000 rpm at 4°C for 10 min. Finally, the supernatant was used for HPLC–QQQ–MS/MS analysis. A non-compartmental analysis was performed using WinNonlin software (Pharsight 6.2, Raleigh, NC, United States) to calculate the PK parameters. The significance of PK parameters in normal rats, generated by the sparse method in WinNonlin, was assessed with Welch’s unequal variances t-test. The significance of the other results was assessed using two-tailed Student’s t-tests. Statistical significance was defined as P < 0.05.

Series [6] in a line: in vivo. The settings on record: male, Wistar, rat, po. The source holds these as a separate data set.
In series [7] the test system is GK rats. The experiment in a line: Oral glucose tolerance test (OGTT) in GK rats on day 28. Type of series: in vivo, rat. The following applies: after 4 weeks of treatment, glucose 2 g/kg oral. As for the experimental part:
as §2

The subject of another series is primary rat hepatocytes. Put plainly: Hepatic metabolism in primary hepatocytes. The settings on record: BBR 1 μM, 3 h, ABT 1 mM, TB-2 0.1 to 30 μM.
For series [8] the following is noted: ref Cai et al., 2008; cited from earlier work.
For series [9] the following is noted: male, Wistar, rat, in vivo. The source holds these as a separate data set.
In series [10] the test system is GK rats. Put plainly: NFBG and FBG levels in GK rats, 6-week oral treatment. Format: in vivo, rat. The following applies: during 6-week treatment, TB-2 33.3, BBR 66.7, TB-2+BBR 100, metformin 200 mg/kg/day. The procedure: as §2
Setting [11] is: read-out: ERpermeability (efflux ratio).
[12] abbreviates: with BBR 10 μM (co-incubated), Caco-2, TB-2 5 μM in presence of BBR (10 μM), n = 3.

Read-outs that look alike come from different tables or passages of the source.

The Papp A→B is the apparent permeability from the apical to the basolateral side of a cell layer. As a reminder, the Papp B→A is the apparent permeability from the basolateral to the apical side of a cell layer. In the case of `C[C@H]1O[C@@H](O[C@H]2[C@@H](O)C[C@H](O[C@H]3[C@@H](O)C[C@H](O[C@H]4CC[C@@]5(C)[C@H](CC[C@@H]6[C@@H]5C[C@@H](O)[C@]5(C)[C@@H](C7=CC(=O)OC7)CC[C@]65O)C4)O[C@@H]3C)O[C@@H]2C)C[C@H](O)[C@@H]1O` [Digoxin, digoxin], the efflux ratio at 120 min in series [1] (setting [11]) was roughly 130. In addition, in series [1] (n = 3), the Papp A→B at 120 min stood at 0.191 ± 0.02 ×10⁻⁶ cm/s and the Papp B→A at 120 min worked out at 26.5 ± 1.91 ×10⁻⁶ cm/s. For the same compound, the “ERpermeability (efflux ratio)” value in the series with Caco-2 cells came out at 138.8.

Broadly, the Tmax is the time at which the peak concentration occurs. The half-life is the time needed for the level to fall by half in the phase considered. The low end stands for rapid decline, the high end for slow decline. A word on the bioavailability: it is dose-corrected exposure relative to a reference, in per cent. Take `CC(CCC1(O)OC2CC3C4CCC5CC(OC6OC(CO)C(O)C(O)C6OC6OC(CO)C(O)C(O)C6O)CCC5(C)C4CCC3(C)C2C1C)COC1OC(CO)C(O)C(O)C1O` (stereo not shown) [TB-2, timosaponin B2]: the “effect on body weight or food consumption vs vehicle” value in series [2] (6-week oral treatment) is given as “no effect”. Further, the “effect on organ coefficients (liver and kidney) vs vehicle” value in series [2] (day 42) is “limited”. Besides, the Tmax in the series “in vivo [3]” (33.3 mg/kg) came to 1 h; in the series “in vivo [3]” (100 mg/kg) it was 2 h; in [5] (male, GK, po, 33.3 mg/kg), 1.1 ± 0.3 h; in series [5] (male, GK, po, 33.3 mg/kg, Tmax) it was 2.1 ± 0.6 h; in the series “in vivo [6]” (33.3 mg/kg) it was 0.2 h; in the series “in vivo [6]” (100 mg/kg), 2 h. Also, the half-life in the series “in vivo [3]” (100 mg/kg) was 22.8 h; in series [5] (male, GK, po, 33.3 mg/kg, T1/2) it was 14.3 ± 5.3 h; in “in vivo [6]” (100 mg/kg), 23.2 h. The “ERliver (liver extraction ratio)” value came out at 77.8% in series [4] and 80.6% in [4] (po, 33.3 mg/kg). In addition, the AUC was determined as 100.4 ± 26.2 h ∗ ng/ml in series [5] (male, GK, po, 33.3 mg/kg) and 77.5 ± 13.6 ng·h/mL in series [5] (male, GK, po, 33.3 mg/kg, AUC). The T1/2 in series [5] (male, GK, po, 33.3 mg/kg) turned out to be 8.6 ± 1.8 h. Besides, the “increase in AUC on combination vs single treatment” value in series [5] is recorded as “no significant improvement”. The “increase in Cmax on combination vs single treatment” value in [5] is “no significant improvement”. Besides, the “decrease in the AUC of blood glucose in OGTT vs vehicle” value with GK rats [7] is “didn’t significantly decrease”. The “effect on BBR metabolism and the generation of M2–M5” value in the series on primary rat hepatocytes was “did not significantly affect”. Besides, the efflux ratio at 120 min in series [1] (setting [11]) amounted to 1.1. Also, the efflux ratio at 120 min, 5 μM in [1] (Caco-2, with BBR 10 μM (co-incubated), Caco-2, TB-2 5 μM in presence of BBR (10 μM), read-out: ERpermeability (efflux ratio)) came out at 1. In addition, the Papp A→B at 120 min, 5 μM in [1] (setting [12]) is 0.081 ± 0.035 ×10⁻⁶ cm/s. Further, in series [1] (setting [12]), the Papp B→A at 120 min, 5 μM came out at 0.085 ± 0.035 ×10⁻⁶ cm/s. This compound also yielded an apparent permeability from apical to basolateral (Papp A→B) at 120 min in series [1] (n = 3) of 0.057 ± 0.032 ×10⁻⁶ cm/s. Moreover, the apparent permeability from basolateral to apical (Papp B→A) at 120 min in [1] (n = 3) is 0.061 ± 0.043 ×10⁻⁶ cm/s. For the same compound, in series [8], the bioavailability was 1.2%. The “improvement of levels on co-administration” value in [9] was 141–230%. Further, the “FBG levels compared with the vehicle group (in words)” value in the series with GK rats [10] is “no significant differences”. The “NFBG levels compared with the vehicle group (in words)” value with GK rats [10] was “no significant differences”.

Values taken from article PMC6353801, “Enhanced Anti-diabetic Effect of Berberine Combined With Timosaponin B2 in Goto-Kakizaki Rats, Associated With Increased Variety and Exposure of Effective Substances Through Intestinal Absorption” (Frontiers in Pharmacology, 2019).
